# According to US20170368082A1, “FORMULATIONS OF BRINCIDOFOVIR” (priority 2016, published 2017):
# Marks after values point to notes of the source that are not given here.
# Assay: 28-day intravenous infusion toxicity study with 14-day recovery
# Type: in vivo, Sprague-Dawley CD rats
# Conditions: for Testicular germ cell depletion, severity: terminal sacrifice
# Procedure: Sprague-Dawley CD® rats (15/sex/group) were administered 0 (2× Sodium Phosphate Buffer Solution), 1, 4 or 15 mg/kg/dose brincidofovir twice per week via 2-hour intravenous infusion on a total of 9 occasions over 29 days. The dose rate was 10 mL/kg/hr for all dose groups. At the end of the treatment phase, up to 10 animals/sex/group were euthanized and necropsied. The remaining animals (up to 5 animals/sex/group) were held for a 14-day recovery phase in order to determine progression or reversibility of any brincidofovir-related effects. Satellite animals (up to 3/sex/group) were similarly dosed and serial blood samples were collected from each animal on Days 1 and 29 for toxicokinetic analysis of brincidofovir and the brincidofovir metabolite (Cidofovir, CDV). Parameters evaluated during the study were: viability, clinical observations, ophthalmology, body weights, food consumption, clinical pathology (termination of dosing and end of recovery), organ weights, macroscopic observations and microscopic pathology.
# The test/control item was administered via 2 hours intravenous infusion twice weekly for a total of 9 individual doses over 29 days. Test/control item administration continued through the day prior to terminal necropsy. Recovery animals were held for a 14 day observation period after the last dose.
# Animals in extremely poor health or in a possible moribund condition were identified for further monitoring and possible euthanasia.
# Observations were made immediately and 2 hours after the completion of dosing for any signs of poor health or toxic or pharmacologic effects (e.g., abnormalities in general condition, appearance, activity, behavior, respiration, etc.).
# Blood obtained via the orbital sinus (retrobulbar venous plexus) under light isoflurane anesthesia was used to analyze hematology, coagulation and clinical chemistry parameters for up to 10 toxicity animals/sex/group at the termination of dosing and up to 5 recovery animals/sex/group at the end of recovery. Animals were fasted overnight prior to each blood collection interval.
# Necropsy was performed on up to 10 toxicity study animals/sex/group after animals had been treated for 29 days and on up to 5 toxicity study animals/sex/group after a 14 day treatment-free recovery period. Animals were fasted overnight prior to necropsy. Necropsy schedules were established to ensure that examination of animals of both sexes from each group were performed at similar times of the day throughout the necropsy periods.
# Complete macroscopic examinations were performed on all animals. The macroscopic examination included examination of the external surface and all orifices; the external surfaces of the brain and spinal cord; the organs and tissues of the cranial, thoracic, abdominal and pelvic cavities and neck; and the remainder of the carcass for the presence of macroscopic morphologic abnormalities.
# The tissues listed below were obtained from all animals and preserved. In addition, slides of the indicated tissues were prepared and examined microscopically. Any abnormalities not noted during macroscopic examinations which were seen during histology processing were recorded.
# After fixation, the tissues and organs from all animals were routinely processed, embedded in paraffin, cut at a microtome setting of 4-7 microns, mounted on glass slides, stained with hematoxylin and eosin and examined by light microscopy. The bones were decalcified in Decalcifier II™.
# [1] = females (2F), 1 mg/kg/dose, 29 day period, 11 tissues examined
# [2] = females (3F), 4 mg/kg/dose, 29 day period, 10 tissues examined
# [3] = females (4F), 15 mg/kg/dose, 29 day period, 10 tissues examined
# [4] = females (4F), 15 mg/kg/dose, following 14-day recovery period, 5 tissues examined
# [5] = males (2M), 1 mg/kg/dose, 29 day period, 10 tissues examined
# [6] = males (2M), 1 mg/kg/dose, following 14-day recovery period, 5 tissues examined
# [7] = males (3M), 4 mg/kg/dose twice weekly, 29 day period, statistically significant
# [8] = males (3M), 4 mg/kg/dose, 29 day period, 10 tissues examined
# [9] = males (3M), 4 mg/kg/dose, following 14-day recovery period, 5 tissues examined
# [10] = males (3M), 4 mg/kg/dose, following 14-day recovery period, statistically significant
# [11] = males (4M), 15 mg/kg/dose twice weekly, 29 day period, statistically significant
# [12] = males (4M), 15 mg/kg/dose, 29 day period, 10 tissues examined
# [13] = males (4M), 15 mg/kg/dose, following 14-day recovery period, 5 tissues examined
# [14] = males (4M), 15 mg/kg/dose, following 14-day recovery period, statistically significant
compound,measurement,setting,value
CCCCCCCCCCCCCCCCOCCCOP(=O)(O)CO[C@H](CO)Cn1ccc(N)nc1=O [Brincidofovir],mortality,"1, 4 or 15 mg/kg/dose",no brincidofovir-related mortalities
same,"Clinical observations, dosing phase","4 and 15 mg/kg/dose, both sexes",intermittent clinical signs
same,No-observed-adverse-effect level (NOAEL),females,4 mg/kg/dose
same,Decrease in food consumption vs concurrent controls (to),"females 15 mg/kg/dose, Week 3",−9.8%
same,Intestinal tract findings: Total Animals Represented,[1],0
same,Skin findings: Total Animals Represented,[1],0
same,Bone marrow findings: Total Animals Represented,"females (2F), 1 mg/kg/dose, following 14-day recovery period, 4 tissues examined",0
same,Intestinal tract findings: Total Animals Represented,[2],9
same,Skin findings: Total Animals Represented,[2],0
same,"Small intestine: Necrosis, Epithelium, Crypts, Minimal (incidence)",[2],9
same,Bone marrow findings: Total Animals Represented,"females (3F), 4 mg/kg/dose, following 14-day recovery period, 5 tissues examined",0
same,Intestinal tract findings: Total Animals Represented,[3],9
same,"Large intestine: Necrosis, Epithelium, glands, Minimal (incidence)",[3],4
same,Skin findings: Total Animals Represented,[3],10
same,"Skin: Atrophy, Sebaceous Glands, Marked (incidence)",[3],2
same,"Skin: Atrophy, Sebaceous Glands, Moderate (incidence)",[3],3
same,"Skin: Atrophy, Sebaceous Glands, Slight (incidence)",[3],5
same,"Small intestine: Hyperplasia, Epithelium, Crypts, Minimal (incidence)",[3],5
same,"Small intestine: Necrosis, Epithelium, Crypts, Minimal (incidence)",[3],3
same,"Small intestine: Necrosis, Epithelium, Crypts, Moderate (incidence)",[3],1
same,"Small intestine: Necrosis, Epithelium, Crypts, Slight (incidence)",[3],5
same,Bone marrow findings: Total Animals Represented,[4],2
same,"Bone marrow: Cellularity, Decreased, Minimal (incidence)",[4],2
same,Incidence of bone marrow decreased cellularity after recovery,"females, 15 mg/kg/dose",2/5
same,Intestinal tract findings: Total Animals Represented,[5],0
same,Male reproductive tract findings: Total Animals Represented,[5],0
same,Skin findings: Total Animals Represented,[5],0
same,Bone marrow findings: Total Animals Represented,[6],0
same,Male reproductive tract findings: Total Animals Represented,[6],0
same,"Testes weight vs. body weight, % difference relative to controls","males (3M), 4 mg/kg/dose twice weekly, 29 day period",−3%
same,"Testes absolute weight, % difference relative to controls",[7],−9^a %
same,"Testes weight vs. brain weight, % difference relative to controls",[7],−9^a %
same,Intestinal tract findings: Total Animals Represented,[8],9
same,Male reproductive tract findings: Total Animals Represented,[8],10
same,"Seminal Vesicles: Apoptosis, Epithelial, Minimal (incidence)",[8],4
same,Skin findings: Total Animals Represented,[8],0
same,"Small intestine: Hyperplasia, Epithelium, Crypts, Minimal (incidence)",[8],5
same,"Small intestine: Necrosis, Epithelium, Crypts, Minimal (incidence)",[8],8
same,"Small intestine: Necrosis, Epithelium, Crypts, Slight (incidence)",[8],1
same,"Testes: Depletion, Germ Cell, Minimal (incidence)",[8],6
same,"Testes: Depletion, Germ Cell, Slight (incidence)",[8],3
same,Bone marrow findings: Total Animals Represented,[9],0
same,Male reproductive tract findings: Total Animals Represented,[9],5
same,"Testes: Depletion, Germ Cell, Minimal (incidence)",[9],1
same,"Testes: Depletion, Germ Cell, Slight (incidence)",[9],4
same,"Testes absolute weight, % difference relative to controls",[10],−21^a %
same,"Testes weight vs. body weight, % difference relative to controls",[10],−26^a %
same,"Testes weight vs. brain weight, % difference relative to controls",[10],−18^a %
same,"Epididymides weight vs. body weight, % difference relative to controls","males (4M), 15 mg/kg/dose twice weekly, 29 day period",−6%
same,"Epididymides absolute weight, % difference relative to controls",[11],−14^a %
same,"Epididymides weight vs. brain weight, % difference relative to controls",[11],−13^a %
same,"Testes absolute weight, % difference relative to controls",[11],−24^a %
same,"Testes weight vs. body weight, % difference relative to controls",[11],−16^a %
same,"Testes weight vs. brain weight, % difference relative to controls",[11],−22^a %
same,"Epididymides: Cell Debris, Luminal, Minimal (incidence)",[12],9
same,Intestinal tract findings: Total Animals Represented,[12],10
same,"Large intestine: Necrosis, Epithelium, glands, Minimal (incidence)",[12],9
same,Male reproductive tract findings: Total Animals Represented,[12],10
same,"Seminal Vesicles: Apoptosis, Epithelial, Minimal (incidence)",[12],8
same,"Seminal Vesicles: Mitotic Figures, Epithelial, Minimal (incidence)",[12],4
same,Skin findings: Total Animals Represented,[12],10
same,"Skin: Atrophy, Sebaceous Glands, Marked (incidence)",[12],4
same,"Skin: Atrophy, Sebaceous Glands, Moderate (incidence)",[12],3
same,"Skin: Atrophy, Sebaceous Glands, Slight (incidence)",[12],3
same,"Small intestine: Hyperplasia, Epithelium, Crypts, Minimal (incidence)",[12],2
same,"Small intestine: Necrosis, Epithelium, Crypts, Minimal (incidence)",[12],2
same,"Small intestine: Necrosis, Epithelium, Crypts, Slight (incidence)",[12],8
same,"Testes: Depletion, Germ Cell, Moderate (incidence)",[12],5
same,"Testes: Depletion, Germ Cell, Slight (incidence)",[12],5
same,Bone marrow findings: Total Animals Represented,[13],3
same,"Bone marrow: Cellularity, Decreased, Slight (incidence)",[13],3
same,"Epididymides: Cell Debris, Luminal, Minimal (incidence)",[13],5
same,"Epididymides: Sperm, Reduced, Luminal, Marked (incidence)",[13],4
same,"Epididymides: Sperm, Reduced, Luminal, Severe (incidence)",[13],1
same,Male reproductive tract findings: Total Animals Represented,[13],5
same,"Testes: Depletion, Germ Cell, Marked (incidence)",[13],4
same,"Testes: Depletion, Germ Cell, Moderate (incidence)",[13],1
same,"Testes absolute weight, % difference relative to controls",[14],−42^a %
same,"Testes weight vs. body weight, % difference relative to controls",[14],−40^a %
same,"Testes weight vs. brain weight, % difference relative to controls",[14],−41^a %
same,"Sebaceous gland atrophy, severity",males and females 15 mg/kg/dose,slight to marked
same,"Single cell necrosis of crypt epithelium in small intestine, severity",males and females ≧4 mg/kg/dose,minimal to moderate
same,Decrease in food consumption vs concurrent controls (to),"males ≧1 mg/kg/dose, Week 4",−16%
same,"Testicular germ cell depletion, severity","males, 4 mg/kg/dose",minimal to slight
same,Incidence of bone marrow decreased cellularity after recovery,"males, 15 mg/kg/dose",3/5
same,"Testicular germ cell depletion, severity","males, 15 mg/kg/dose",slight to moderate
same,No-observed-adverse-effect level (NOAEL),"males, twice weekly 2-h IV infusion",1 mg/kg/dose
same,Diarrhea,"rat, in vivo",none of the animals in the present study experienced diarrhea
same,"Effects on ophthalmology, body weights, hematology, coagulation, clinical chemistry, urinalysis","rat, in vivo",no brincidofovir-related effects
same,Transaminase elevations,"rat, in vivo",No transaminase elevations were observed
